Measured values: patent publication US20230414622A1, “PHARMACEUTICAL METHOTREXATE COMPOSITION” (Leopold MTX GmbH, priority 2020, published 2023)
Read-outs that look alike come from different tables or passages of the source.

How the values were obtained:
[1] = biological target: T1, TNF-α (Homo sapiens, UniProt P01375); assay: Microscale thermophoresis (MST) binding affinity to Cy5-labelled recombinant TNF-α; conditions: for Kd: PBS pH 7.5, 25° C., mean of six independent test series
T1 construct: purchased Acrobiosystems, USA
Experimental: (§1) In addition to thermodynamic stability, the binding affinity of the biopharmaceuticals in compositions according to the present invention was determined and compared with the binding affinity in corresponding reference compositions.
(§2) Binding studies were performed using microscale thermophoresis (MST) with the Monolith NT.115 device (NanoTemper Technologies, Munich, Germany).
(§3) For the MST measurements, 10 microliters each of the biopharmaceutical at a concentration of […] were mixed with 10 microliters each of a serial dilution of methotrexate disodium in PBS buffer pH 7.5 to prepare the compositions according to the invention. The final concentration of MTX in all samples was 55 micromoles per liter, while the concentration of the respective ligand ranged from 1.5 micromoles per liter to 25 millimoles per liter.
(§4) Samples were loaded into coated capillaries (NanoTemper Technologies) according to the manufacturer's instructions and fluorescence was recorded for 20 seconds at 100% laser power and 40% MST power. The temperature of the instrument was set at 25° C. for all measurements. After the recordal of MST time traces, the data were analyzed. The equilibrium dissociation constant (KD) was determined based on the change in normalized fluorescence as a function of the concentration of the corresponding ligand after 14 seconds of thermophoresis using MO affinity analysis software (NanoTemper Technologies).
(§5) The values shown are the arithmetic mean values from six independent test series in each case.

[2] = Thermal unfolding profiles (Tycho NT.6 fluorimeter): temperature stability of the biologic with or without MTX; type: physicochemical
Source text: To prepare the compositions according to the invention, the biologics were combined with methotrexate disodium at concentrations of 25 milligrams per milliliter, 16.6 milligrams per milliliter, 10.0 milligrams per milliliter, 7.14 milligrams per milliliter, and 5.0 milligrams per milliliter, respectively. Phosphate buffered saline (PBS buffer) pH 7.5 was used as the solvent. As reference composition in each case served the biopharmaceutical in equivalent concentration in PBS buffer pH 7.5 without the addition of methotrexate disodium.
In each case, the above-noted concentrations were the final concentration of the biopharmaceutical or the methotrexate in the pharmaceutical composition.
After 20 days of incubation, the compositions were measured using a Tycho NT.6 fluorimeter (NanoTemper Technologies, Munich, Germany) according to the manufacturer's instructions to determine the thermal unfolding profiles of the biologics.
The inflection point of each curve indicates the denaturation temperature of the biopharmaceutical in the composition.

[3] = biological target: CD80; assay: Microscale thermophoresis (MST) binding affinity to Cy5-labelled recombinant CD80; conditions: for Kd: PBS pH 7.5, 25° C., mean of six independent test series
Experimental: as §1, §2
Recombinant TNF-α, CD20, and CD80 (Acrobiosystems, USA) were labeled for MST measurements using the fluorescent dye Cy5 (Thermo Fisher Scientific, Germany) according to the manufacturer's instructions. The concentration of the recombinant proteins was measured after labeling using a UV-Vis spectrophotometer, and a labeling efficiency of 80 was determined.
as §3, §4, §5

[4] = biological target: T2, Recombinant CD20 (Acrobiosystems), Cy5-labelled (UniProt P11836 1-297, limits assumed, labelled with fluorescent dye Cy5 (site not stated)); assay: microscale thermophoresis; KD with MTX against the reference without MTX
T2 construct: Bought recombinant protein; construct not described; also called B-lymphocyte antigen CD20
T2 sequence (looked up): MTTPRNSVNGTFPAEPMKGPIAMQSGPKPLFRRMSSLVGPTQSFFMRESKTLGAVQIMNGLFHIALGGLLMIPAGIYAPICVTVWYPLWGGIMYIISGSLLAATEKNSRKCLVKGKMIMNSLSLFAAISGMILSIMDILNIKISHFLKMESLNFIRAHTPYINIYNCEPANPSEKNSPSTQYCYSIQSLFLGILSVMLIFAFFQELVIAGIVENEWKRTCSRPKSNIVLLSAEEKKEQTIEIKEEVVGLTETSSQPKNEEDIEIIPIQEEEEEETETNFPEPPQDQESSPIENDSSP

[5] = biological target: T2, Recombinant CD20 (Acrobiosystems), …; assay: microscale thermophoresis, Cy5-labelled CD20, PBS pH 7.5, 25 °C, reference without MTX; mean of six series
[6] = biological target: T2, Recombinant CD20 (Acrobiosystems), …; assay: microscale thermophoresis, Cy5-labelled CD20, PBS pH 7.5, 25 °C, with methotrexate disodium; mean of six series
[7] = MTX 55 micromoles per liter, read-out: KD with MTX
[8] = read-out: KD without MTX (reference)

Sequence of CD80 (P33681 35-288): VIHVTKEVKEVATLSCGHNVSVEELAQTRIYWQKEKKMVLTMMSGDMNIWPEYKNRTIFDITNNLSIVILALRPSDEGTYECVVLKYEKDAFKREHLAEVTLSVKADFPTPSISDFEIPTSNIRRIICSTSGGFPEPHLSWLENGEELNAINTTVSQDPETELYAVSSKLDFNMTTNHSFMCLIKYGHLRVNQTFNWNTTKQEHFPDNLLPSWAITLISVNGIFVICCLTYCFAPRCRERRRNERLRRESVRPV
T1 sequence (P01375 77-233 limits assumed): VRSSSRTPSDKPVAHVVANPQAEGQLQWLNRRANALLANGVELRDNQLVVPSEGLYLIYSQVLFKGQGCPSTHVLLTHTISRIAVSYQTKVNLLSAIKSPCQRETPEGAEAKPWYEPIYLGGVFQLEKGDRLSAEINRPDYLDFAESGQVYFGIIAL

Molecule: Adalimumab
- Kd [1, 7]: 0.14 nM
- Kd [1, 8]: 0.147 nM
- binding affinity / binding strength in composition with MTX compared to control without MTX ([1]; in words, the b130 statement covers all tested ligands (TNF-α, CD20, CD80)): higher binding affinity
- Relative increase in binding strength ([1]; with MTX vs without MTX): 5%

Molecule: Etanercept
- temperature stability in composition with MTX ([2]; MTX 5 milligrams per milliliter, PBS pH 7.5, 20 days of incubation): 74.3 °C
- denaturation temperature / temperature stability in reference composition without MTX ([2]; PBS buffer pH 7.5, without MTX, after 20 days of incubation): 73.9 °C
- Kd [1, 7]: 0.005 nM
- Kd [1, 8]: 0.0116 nM

Molecule: Rituximab: biologic that specifically binds B-lymphocyte antigen CD20 (trade names: MabThera, Rituxan)
- Kd [3, 7]: 6.8 nM
- Kd [3, 8]: 11.3 nM
- Relative increase in binding strength ([3]; with MTX vs without MTX): 66%

B1: Rituximab (MabThera) (antibody, V domains shown)
VH: QVQLQQPGAELVKPGASVKMSCKASGYTFTSYNMHWVKQTPGRGLEWIGAIYPGNGDTSYNQKFKGKATLTADKSSSTAYMQLSSLTSEDSAVYYCARSTYYGGDWYFNVWGAGTTVTVSA
VL: QIVLSQSPAILSASPGEKVTMTCRASSSVSYIHWFQQKPGSSPKPWIYATSNLASGVPVRFSGSGSGTSYSLTISRVEAEDAATYYCQQWTSNPPTFGGGTKLEIK
- Relative increase in binding strength [4]: 66%
- Kd [5]: 11.3 nM
- Kd [6]: 6.8 nM
